Data published in publication PMC8543760 (Cell chemical biology, 2018).

Target: cytoplasmic dynein 1 (Sus scrofa, UniProt A0A287B9W3)
Experiment: microtubule-stimulated ATPase assay
Type: biochemical

How did the IC50 turn out when `N#CC(=C(O)c1ccc(Cl)cc1Cl)c1nc2ccccc2c(=O)[nH]1` [Ciliobrevin A] was run?
Its IC50 is roughly 84 µM.
